Experimental findings from patent US20090247543A1, “GATIFLOXACIN-CONTAINING AQUEOUS LIQUID PREPARATION” (Kyorin Pharmaceutical Co., Ltd., priority 2008, published 2009) are described below.

This assay concerns Enterococcus faecalis (opthalmologic clinical isolated strain A-2-7). Briefly: Minimal inhibitory concentration used as indicator for T>MIC. The format is cell-based.

Molecules are shown by their SMILES. ≈ marks a conversion by molar mass, not a printed value.

Consider `COc1c(N2CCNC(C)C2)c(F)cc2c(=O)c(C(=O)O)cn(C3CC3)c12` (racemic) [Gatifloxacin, (±)-1-cyclopropyl-6-fluoro-1,4-dihydro-8-methoxy-7-(3-methyl-1-piperazinyl)-4-oxo-3-quinolinecarboxylic acid], for which the MIC amounted to 0.39 µg/mL (≈ 1.04 µM).
